Common to all, as to assay type: cell-based
One assay concerns MSSA (ATCC 25923). Briefly: Broth microdilution MIC, MSSA ATCC 25923. Conditions: Staphylococcus aureus.
For the next assay, the system named is S. aureus 29213. Briefly: Broth microdilution MIC, S. aureus 29213. The following applies: Staphylococcus aureus.
Another assay has as its system MRSA (ATCC 33591). The experiment in a line: Broth microdilution MIC, MRSA ATCC 33591. Conditions: Staphylococcus aureus; Tables 2-4; standardized conditions. On the procedure:
General information—Biological Assays. Methicillin-resistant and methicillin sensitive Staphylococcus aureus (MRSA and MSSA respectively) strains were obtained from the Laboratory of Professor Christian Melander (NCSU) (ATCC BAA 44 and 33591) and Dr. Jessica Gilbertie (ATCC 25923). Bacteria were kept in frozen stocks on glycerol at −80° C. until use. Bacteria was streaked onto tryptic-soy agar for colony isolation. Mueller-Hinton broth (MHB, 211443-BD), tryptic soy broth (TSB, Remel: R455052) and D-glucose (CAS: 492-62-6) were purchased from Fisher Scientific. Tryptic soy agar (TSA, cat. #22091) and Linezolid (cat. #P70014) were purchased from Sigma-Aldrich. Bacteria for biofilm inhibition were cultured overnight in TSB-G (tryptic soy broth with 0.5% glucose supplement) in 96 well plates. All assays were run in duplicate and repeated at least two separate times for MIC assays and at least three separate times for biofilm inhibition. All compounds were dissolved in molecular biology grade DMSO as 10 mM stock solutions. Optical densities were measured using a Thermo Scientific Genesys 20 spectrophotometer. Data for biofilm inhibition were collected using a BioTek ELx808 Microplate Reader. All graphs were generated and analyzed using GraphPad Prism 7.
Broth microdilution method for determination of minimum inhibitory concentrations. As prescribed by the Clinical and Laboratory Standards Institute (CLSI) M07-A8, Vol. 29 (2) MSSA (ATCC 25923) and MRSA (ATCC BAA 44 and 33591) was grown in MHB for 6-8 h; this culture was used to inoculate fresh MHB (5×10^5 CFU/mL). The resulting bacterial suspension was aliquoted (1 mL) into 1.5 mL Eppendorf tubes and compound was added from a 10 mM DMSO stock to achieve the desired initial starting concentration (typically 128 μg/mL). Linezolid (from a 10 mM DMSO stock) was used as a positive control. Inoculated media not treated with compound served as the negative control. The MIC was determined by microbroth dilution following the CLSI guidelines. The MIC was defined as the lowest concentration of antibiotic with no visible growth. The plate was sealed and incubated under stationary conditions at 37° C.
The antimicrobial activity of Compounds 1-15 was assessed initially against MSSA (ATCC 25923) and MRSA (ATCC 33591) strains. It was observed that almost all these compounds precipitated in aqueous solution at concentrations equal or higher than 8-16 μg/mL. In order to obtain preliminary results on the antimicrobial activity for these compounds, the standard conditions of the antimicrobial assays used where modified to favor the water solubility of these compounds.

Where [1] appears, read: Tables 2-4, standardized conditions, read-out: MIC (S. aureus 25923).
Setting [2] is: Table 2, standardized conditions, read-out: MIC (S. aureus 25913).
Setting [3] is: Tables 3-4, standardized conditions, read-out: MIC (S. aureus 29213).

The structures appear in SMILES notation. In brackets after ≈: the same amount, converted by molar mass. Where two headings read alike, the source gives them in different places.

For `O=C(O)c1cn(C2CC2)c2cc(N3CCNCC3)c(F)cc2c1=O` [Ciprofloxacin, ciprofloxacin, reference compound], the minimal inhibitory concentration (MIC) in the assay with MSSA (ATCC 25923) (antibiotic alone, read-out: MIC value against MSSA ATCC 25923) is 0.5 µg/mL (≈ 1.51 µM).

On to `CCC1C(c2ccc(C(F)(F)F)cc2)=C(O)C(=O)N1CCN` (centres unmarked) [Compound 16, 1-(2-Aminoethyl)-5-ethyl-3-hydroxy-4-(4-(trifluoromethyl)phenyl)-1,5-dihydro-2H-pyrrol-2-one], for which the MIC was 128 µg/mL (≈ 407 µM) with MSSA (ATCC 25923) (setting [1]), 128 µg/mL (≈ 407 µM) in the assay with S. aureus 29213 (setting [2]) and over 128 µg/mL with MRSA (ATCC 33591).

As for `CCC1C(c2ccc(C(F)(F)F)cc2)=C(O)C(=O)N1CCCCN` (centres unmarked) [Compound 17, 1-(4-Aminobutyl)-5-ethyl-3-hydroxy-4-(4-(trifluoromethyl)phenyl)-1,5-dihydro-2H-pyrrol-2-one], the MIC in the assay on MSSA (ATCC 25923) (setting [1]), in the assay on S. aureus 29213 (setting [2]) and against MRSA (ATCC 33591) was over 128 µg/mL throughout.

In the case of `CCC1C(c2ccc(C(F)(F)F)cc2)=C(O)C(=O)N1CCCCCCN` (centres unmarked) [Compound 18, 1-(6-Aminohexyl)-5-ethyl-3-hydroxy-4-(4-(trifluoromethyl)phenyl)-1,5-dihydro-2H-pyrrol-2-one], the MIC in the assay on MSSA (ATCC 25923) (setting [1]), in the assay on S. aureus 29213 (setting [2]) and with MRSA (ATCC 33591) was over 128 µg/mL throughout.

Regarding `CCC1C(c2ccc(C(F)(F)F)cc2)=C(O)C(=O)N1C1CCC(N)CC1` (centres unmarked) [Compound 19, 1-((1r,4r)-4-Aminocyclohexyl)-5-ethyl-3-hydroxy-4-(4-(trifluoromethyl)phenyl)-1,5-dihydro-2H-pyrrol-2-one], the minimum inhibitory concentration (MIC) came out at 64 µg/mL (≈ 174 µM) in the assay with MSSA (ATCC 25923) (setting [1]), 128 µg/mL (≈ 347 µM) in the assay with S. aureus 29213 (setting [2]) and 128 µg/mL (≈ 347 µM) against MRSA (ATCC 33591).

`CCC1C(c2ccc(C(F)(F)F)cc2)=C(O)C(=O)N1c1ccc(N)cc1` (centres unmarked) [Compound 20, 1-(4-Aminophenyl)-5-ethyl-3-hydroxy-4-(4-(trifluoromethyl)phenyl)-1,5-dihydro-2H-pyrrol-2-one]: the minimum inhibitory concentration (MIC) in the assay with MSSA (ATCC 25923) (setting [1]) is over 128 µg/mL; in the assay with S. aureus 29213 (setting [2]) it was over 128 µg/mL; against MRSA (ATCC 33591) it was 64 µg/mL (≈ 177 µM).

As to `CCC1C(c2ccc(C(F)(F)F)cc2)=C(O)C(=O)N1CCOCCN` (centres unmarked) [Compound 21, 1-(2-(2-Aminoethoxy)ethyl)-5-ethyl-3-hydroxy-4-(4-(trifluoromethyl)phenyl)-1,5-dihydro-2H-pyrrol-2-one], the minimal inhibitory concentration (MIC) in the assay with MSSA (ATCC 25923) (setting [1]), with S. aureus 29213 (setting [2]) and in the assay with MRSA (ATCC 33591) was over 128 µg/mL throughout.

`CCC1C(c2ccc(C(F)(F)F)cc2)=C(O)C(=O)N1CCOCCOCCOCCN` (centres unmarked) [Compound 22, 1-(2-(2-(2-(2-Aminoethoxy)ethoxy)ethoxy)ethyl)-5-ethyl-3-hydroxy-4-(4-(trifluoromethyl)phenyl)-1,5-dihydro-2H-pyrrol-2-one]: the minimal inhibitory concentration (MIC) in the assay on MSSA (ATCC 25923) (setting [1]), in the assay on S. aureus 29213 (setting [2]) and in the assay with MRSA (ATCC 33591) was over 128 µg/mL in each case.

As for `CCC1C(c2ccc(C(F)(F)F)cc2)=C(O)C(=O)N1CCCNCCCCN` (centres unmarked) [Compound 23, 1-(3-((4-Aminobutyl)amino)propyl)-5-ethyl-3-hydroxy-4-(4-(trifluoromethyl)phenyl)-1,5-dihydro-2H-pyrrol-2-one], the figures for the MIC in the assay with MSSA (ATCC 25923) (setting [1]), in the assay with S. aureus 29213 (setting [2]) and against MRSA (ATCC 33591) were 16 µg/mL (≈ 40.1 µM), 64 µg/mL (≈ 160 µM) and 32 to 64 µg/mL (≈ 80.1 to 160 µM), respectively.

For `CCC1C(c2ccc(C(F)(F)F)cc2)=C(O)C(=O)N1CCCNCCCCNCCCN` (centres unmarked) [Compound 24, 1-(3-((4-((3-Aminopropyl)amino)butyl)amino)propyl)-5-ethyl-3-hydroxy-4-(4-(trifluoromethyl)phenyl)-1,5-dihydro-2H-pyrrol-2-one], the minimum inhibitory concentration (MIC) in the assay on MSSA (ATCC 25923) (setting [1]) turned out to be 8 µg/mL (≈ 17.5 µM); in the assay with S. aureus 29213 (setting [2]), 16 µg/mL (≈ 35 µM); against MRSA (ATCC 33591), 16 µg/mL (≈ 35 µM).

For the molecule `CCC1C(c2ccc(C(F)(F)F)cc2)=C(O)C(=O)N1CCN1C(=O)C(O)=C(c2ccc(C(F)(F)F)cc2)C1CC` (centres unmarked) [Compound 25, 1,1′-(Ethane-1,2-diyl)bis(5-ethyl-3-hydroxy-4-(4-(trifluoromethyl)phenyl)-1,5-dihydro-2H-pyrrol-2-one)], the minimal inhibitory concentration (MIC) in the assay with MSSA (ATCC 25923) (setting [1]), with S. aureus 29213 (setting [2]) and in the assay on MRSA (ATCC 33591) was over 128 µg/mL in each case.

With `CCC1C(c2ccc(C(F)(F)F)cc2)=C(O)C(=O)N1CCCCN1C(=O)C(O)=C(c2ccc(C(F)(F)F)cc2)C1CC` (centres unmarked) [Compound 26, 1,1′-(Butane-1,4-diyl)bis(5-ethyl-3-hydroxy-4-(4-(trifluoromethyl)phenyl)-1,5-dihydro-2H-pyrrol-2-one)], the MIC in the assay on MSSA (ATCC 25923) (setting [1]), in the assay with S. aureus 29213 (setting [2]) and against MRSA (ATCC 33591) was over 128 µg/mL each time.

`CCC1C(c2ccc(C(F)(F)F)cc2)=C(O)C(=O)N1CCCCCCN1C(=O)C(O)=C(c2ccc(C(F)(F)F)cc2)C1CC` (centres unmarked) [Compound 27, 1,1′-(Hexane-1,6-diyl)bis(5-ethyl-3-hydroxy-4-(4-(trifluoromethyl)phenyl)-1,5-dihydro-2H-pyrrol-2-one)]: the minimal inhibitory concentration (MIC) in the assay on MSSA (ATCC 25923) (setting [1]), with S. aureus 29213 (setting [2]) and in the assay on MRSA (ATCC 33591) was over 128 µg/mL throughout.

Regarding `CCC1C(c2ccc(C(F)(F)F)cc2)=C(O)C(=O)N1C1CCC(N2C(=O)C(O)=C(c3ccc(C(F)(F)F)cc3)C2CC)CC1` (centres unmarked) [Compound 28, 1,1′-((1r,4r)-Cyclohexane-1,4-diyl)bis(5-ethyl-3-hydroxy-4-(4-(trifluoromethyl)phenyl)-1,5-dihydro-2H-pyrrol-2-one)], the values for the MIC in the assay on MSSA (ATCC 25923) (setting [1]), with S. aureus 29213 (setting [2]) and with MRSA (ATCC 33591) were 8 µg/mL (≈ 12.8 µM), 32 µg/mL (≈ 51.4 µM) and 32 µg/mL (≈ 51.4 µM), respectively.

On to `CCC1C(c2ccc(C(F)(F)F)cc2)=C(O)C(=O)N1CCOCCN1C(=O)C(O)=C(c2ccc(C(F)(F)F)cc2)C1CC` (centres unmarked) [Compound 30, 1,1′-(Oxybis(ethane-2,1-diyl))bis(5-ethyl-3-hydroxy-4-(4-(trifluoromethyl)phenyl)-1,5-dihydro-2H-pyrrol-2-one)], for which the minimal inhibitory concentration (MIC) in the assay with MSSA (ATCC 25923) (setting [1]), in the assay with S. aureus 29213 (setting [2]) and in the assay on MRSA (ATCC 33591) was over 128 µg/mL each time.

`CCC1C(c2ccc(C(F)(F)F)cc2)=C(O)C(=O)N1CCOCCOCCOCCN1C(=O)C(O)=C(c2ccc(C(F)(F)F)cc2)C1CC` (centres unmarked) [Compound 31, 1,1′-(((Oxybis(ethane-2,1-diyl))bis(oxy))bis(ethane-2,1-diyl))bis(5-ethyl-3-hydroxy-4-(4-(trifluoromethyl)phenyl)-1,5-dihydro-2H-pyrrol-2-one)]: the minimum inhibitory concentration (MIC) with MSSA (ATCC 25923) (setting [1]), in the assay on S. aureus 29213 (setting [2]) and in the assay with MRSA (ATCC 33591) was over 128 µg/mL each time.

`CCC1C(c2ccc(C(F)(F)F)cc2)=C(O)C(=O)N1CCCCNCCCN1C(=O)C(O)=C(c2ccc(C(F)(F)F)cc2)C1CC` (centres unmarked) [Compound 32, 5-Ethyl-1-(3-((4-(2-ethyl-4-hydroxy-5-oxo-3-(4-(trifluoromethyl)phenyl)-2,5-dihydro-1H-pyrrol-1-yl)butyl)amino)propyl)-3-hydroxy-4-(4-(trifluoromethyl)phenyl)-1,5-dihydro-2H-pyrrol-2-one]: the MIC with MSSA (ATCC 25923) (setting [1]) amounted to 8 µg/mL (≈ 12.2 µM); in the assay with S. aureus 29213 (setting [2]) it was 64 µg/mL (≈ 97.9 µM); in the assay on MRSA (ATCC 33591), 64 µg/mL (≈ 97.9 µM).

As for `CCC1C(c2ccc(C(F)(F)F)cc2)=C(O)C(=O)N1CCCNCCCCNCCCN1C(=O)C(O)=C(c2ccc(C(F)(F)F)cc2)C1CC` (centres unmarked) [Compound 33, 1,1′-((Butane-1,4-diylbis(azanediyl))bis(propane-3,1-diyl))bis(5-ethyl-3-hydroxy-4-(4-(trifluoromethyl)phenyl)-1,5-dihydro-2H-pyrrol-2-one)], the MIC in the assay with MSSA (ATCC 25923) (setting [1]) and in the assay with S. aureus 29213 (setting [2]) was 4 µg/mL (≈ 5.63 µM) in each case.

As for `CCC1C(c2ccc(C(F)(F)F)cc2)=C(O)C(=O)N1CCNCCNCCNCCN` (centres unmarked) [Compound 34], the minimum inhibitory concentration (MIC) in the assay with MSSA (ATCC 25923) (setting [1]), with S. aureus 29213 (setting [3]) and against MRSA (ATCC 33591) was over 128 µg/mL in each case.

`CCC1C(c2ccc(C(F)(F)F)cc2)=C(O)C(=O)N1CCSCCN` (centres unmarked) [Compound 36]: the MIC in the assay with MSSA (ATCC 25923) (setting [1]), in the assay with S. aureus 29213 (setting [3]) and against MRSA (ATCC 33591) was over 128 µg/mL throughout.

For `CCC1C(c2ccc(C(F)(F)F)cc2)=C(O)C(=O)N1CCSCCN1C(=O)C(O)=C(c2ccc(C(F)(F)F)cc2)C1CC` (centres unmarked) [Compound 37, 1,1′-(thiobis(ethane-2,1-diyl))bis(5-ethyl-3-hydroxy-4-(4-(trifluoromethyl)phenyl)-1,5-dihydro-2H-pyrrol-2-one)], the MIC in the assay with MSSA (ATCC 25923) (setting [1]), with S. aureus 29213 (setting [3]) and in the assay on MRSA (ATCC 33591) was over 256 µg/mL each time.

Regarding `O=C1C(O)=C(c2ccc(C(F)(F)F)cc2)C([C@H](O)c2ccccc2)N1c1ccc(Br)cc1` (stereo partly drawn) [Compound 47, 1-(4-Bromophenyl)-3-hydroxy-5-((R)-hydroxy(phenyl)methyl)-4-(4-(trifluoromethyl)phenyl)-1,5-dihydro-2H-pyrrol-2-one], the minimal inhibitory concentration (MIC) in the assay with S. aureus 29213 (setting [3]) and in the assay with MRSA (ATCC 33591) was 8 µg/mL (≈ 15.9 µM) throughout.

For the origin of these results see patent US20250326718A1, “4-PHENYL-2-PYRROLIDINONES AND METHODS OF USING THEREOF” (North Carolina State University, priority 2022, published 2025).
